Measured values taken from patent US11746110B2, “Alkynyl (hetero) aromatic ring compounds used for inhibiting protein kinase activity” (Shenzhen TargetRx, Inc., priority 2018, dated 2023).

Columns and labels:
ABL = ABL (Homo sapiens (Human), UniProt P00519); experiment: Biochemical kinase analysis, ABL; details: kinase inhibition assay
Method: (§1) Reagents and materials: ABL (ThermoFisher, Cat. No. PV3585), ABL^T315I(Thermo Fisher, Cat. No. PR7429B), Ret (Carna, Cat. No. 08-159-10 ug), RET^V804M, Active (Signalchem, Cat. No. R02-12GG), ATP (Sigma, Cat. No. A7699-1G), DMSO (Sigma, Cat. No. D2650), 96-well plate (Corning, Cat. No. 3365), 384-well plate (Greiner, Cat. No. 784076), buffer solution (Thermo Fisher, Cat. No. PR4876B).
(§2) Compound formulation: The test compounds were dissolved in DMSO to prepare a 20 mM stock solution. Before use, the compounds were diluted in DMSO to 0.1 mM, and diluted into 11 concentrations with a 3-fold gradient. When addition, dilutions of 4-fold final concentration were then made with buffer solution.
(§3) Kinase assay method: After preparing the buffer, the enzyme was mixed with pre-formulated and diluted compounds of different concentrations in duplicate for each concentration, and placed at room temperature for 30 minutes. The corresponding substrate and ATP were added thereto, and reacted at room temperature for 60 minutes (both a negative and a positive control were set). After the reaction, antibody was added for detection, Evnvision detection was carried out after 60 minutes incubation at room temperature, and data was collected. Data analysis and fitting were made according to XLfit5 software.

ABL^T315I = ABL^T315I (Homo sapiens (Human), UniProt P00519, T315I); experiment: Biochemical kinase analysis, ABL T315I; details: kinase inhibition assay
Method: as §1, §2, §3

Ret = Ret (Homo sapiens (Human), UniProt P07949); experiment: Biochemical kinase analysis, Ret; details: kinase inhibition assay
Method: as §1, §2, §3

RET^V804M = RET^V804M (Homo sapiens (Human), UniProt P07949, V804M); experiment: Biochemical kinase analysis, RET V804M; details: kinase inhibition assay
Method: as §1, §2, §3

Ba/F3 parental cells = experiment: Cell proliferation analysis, Ba/F3 parental; type: cell-based; details: Mus musculus, BaF3, 72 h; 3 days, CellTiter-Glo, 8 ng/ml IL-3
Method: (§4) The inhibitory effect of the example compounds on Ba/F3 parental, Ba/F3 Bcr-Abl^T315I, K562, Ba/F3 KIF5B-RET, BaF3 FLT3-ITD cell activity was determined.
(§5) Materials and reagents: RPMI-1640 medium (GIBCO, Catalog No. A10491-01), fetal bovine serum (GIBCO, Catalog No. 10099141), antibiotics (Penicillin-Streptomycin), IL-3(PeproTech), promycin; cell lines: Ba/F3 parental, Ba/F3 Bcr-Abl^T315I, Ba/F3 KIF5B-RET, BaF3 FLT3-ITD, (purchased from American type culture collection, ATCC), K562 live cell detection kit CellTiter-Glo4(Promega, Catalog No. G7572), 96-well black wall transparent flat bottom cell culture plate (Corning, Catalog No. 3340).
(§6) Test method: 1. Preparation of cell plate: Ba/F3 parental, Ba/F3 Bcr-Abl^T315I K563, Ba/F3 KIFSB-RET, BaF3 FLT3-ITD cells were respectively seeded in 96-well plates, and 8 ng/ml IL-3 was added to the Ba/F3 cells, and the cell plates were placed in a carbon dioxide incubator and cultured overnight. 2. The test compounds were dissolved in DMSO, 9 compound concentrations were made with a 3.16-fold gradient dilution in triplicate. 3. Treatment of the cells with compounds: The compounds were transferred to the cell plate with a starting concentration of 10 μM. The cell plate was placed in a carbon dioxide incubator for 3 days. 4. Detection: CellTiter-Glo agent was added to the cell plate, and incubated at room temperature for 30 minutes to stabilize the luminous signal. PerkinElmer Envision multi-label analyzer was used for reading, wherein A represents IC50≤50 nM, B represents IC50 is 50-100 nM, C represents IC50 is 100-500 nM, D represents IC50 is 500-1000 nM, […].

K562 cells = experiment: Cell proliferation analysis, K562; type: cell-based; details: Homo sapiens, K562, 72 h; 3 days, CellTiter-Glo
Method: as §4, §5, §6

Ba/F3 BCR-ABL cells = experiment: Cell proliferation analysis, Ba/F3 BCR-ABL; type: cell-based; details: Mus musculus, BaF3, 72 h; 3 days, CellTiter-Glo
Method: [Worded in the source for another variant; this variant is reported under the same test.] as §4, §5, §6

[1] = system: Ba/F3 Bcr-Abl^T315I cells; experiment: Cell proliferation analysis, Ba/F3 Bcr-Abl T315I; type: cell-based; details: Mus musculus, BaF3, 72 h; 3 days, CellTiter-Glo; read-out: IC50 (nM) Ba/F3 BCR-ABL^T315
Method: as §4, §5, §6

Ba/F3 KIF5B-RET cells = experiment: Cell proliferation analysis, Ba/F3 KIF5B-RET; type: cell-based; details: Mus musculus, BaF3, 72 h; 3 days, CellTiter-Glo
Method: as §4, §5, §6

BaF3 FLT3-ITD cells = experiment: Cell proliferation analysis, BaF3 FLT3-ITD; type: cell-based; details: Ba/F3 FLT3-ITD, 72 h; 3 days, CellTiter-Glo
Method: as §4, §5, §6

Sequence of Ret (P07949 29-1114): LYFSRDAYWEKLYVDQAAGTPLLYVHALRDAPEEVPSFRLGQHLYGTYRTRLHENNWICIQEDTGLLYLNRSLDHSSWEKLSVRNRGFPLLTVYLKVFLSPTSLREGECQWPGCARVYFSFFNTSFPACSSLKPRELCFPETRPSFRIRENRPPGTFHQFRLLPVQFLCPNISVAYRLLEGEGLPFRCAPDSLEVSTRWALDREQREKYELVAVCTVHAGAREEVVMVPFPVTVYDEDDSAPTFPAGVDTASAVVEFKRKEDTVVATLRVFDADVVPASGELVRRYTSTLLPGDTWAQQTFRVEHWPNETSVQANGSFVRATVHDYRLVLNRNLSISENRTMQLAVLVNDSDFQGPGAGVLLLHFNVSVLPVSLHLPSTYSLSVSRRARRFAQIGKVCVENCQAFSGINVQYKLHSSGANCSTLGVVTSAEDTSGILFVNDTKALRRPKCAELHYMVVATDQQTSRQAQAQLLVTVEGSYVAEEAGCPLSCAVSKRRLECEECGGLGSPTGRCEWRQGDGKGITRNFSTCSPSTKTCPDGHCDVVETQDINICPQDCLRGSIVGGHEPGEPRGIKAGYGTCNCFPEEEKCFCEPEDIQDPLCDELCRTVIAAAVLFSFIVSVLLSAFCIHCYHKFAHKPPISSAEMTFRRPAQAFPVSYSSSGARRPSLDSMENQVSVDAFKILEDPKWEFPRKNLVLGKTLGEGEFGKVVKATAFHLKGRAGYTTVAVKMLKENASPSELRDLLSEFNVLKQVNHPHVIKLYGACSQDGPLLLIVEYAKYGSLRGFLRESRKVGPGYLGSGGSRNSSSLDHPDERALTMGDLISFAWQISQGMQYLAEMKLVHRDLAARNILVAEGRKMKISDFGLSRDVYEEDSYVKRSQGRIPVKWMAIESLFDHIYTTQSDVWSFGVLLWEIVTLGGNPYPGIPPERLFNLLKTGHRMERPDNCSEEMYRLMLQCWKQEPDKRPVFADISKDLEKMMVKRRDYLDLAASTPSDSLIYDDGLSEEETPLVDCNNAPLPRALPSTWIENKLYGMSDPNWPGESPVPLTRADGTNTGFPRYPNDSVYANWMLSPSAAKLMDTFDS
Sequence of RET^V804M (P07949 29-1114 V804M): as the sequence (P07949 29-1114) above, with V776M counted along it

| SMILES | IC50 (ABL) | IC50 (ABL^T315I) | IC50 (Ret) | IC50 (RET^V804M) | IC50 (Ba/F3 parental cells) | IC50 (K562 cells) | IC50 (Ba/F3 BCR-ABL cells) | IC50 [1] | IC50 (Ba/F3 KIF5B-RET cells) | IC50 (BaF3 FLT3-ITD cells) |
| --- | --- | --- | --- | --- | --- | --- | --- | --- | --- | --- |
| Cc1ccc(C(=O)Nc2ccc(CN3CCN(C)CC3)c(C(F)(F)F)c2)cc1C#Cc1cnc2c(Nc3cnn(C)c3)ccnn12 [Example 15, 4-methyl-3-((8-((1-methyl-1H-pyrazol-4-yl)amino)imidazo[1,2-b]pyridazin-3-yl)ethynyl)-N-(4-((4-methylpiperazin-1-yl)methyl)-3-(trifluoromethyl)phenyl)benzamide] | 3.24 nM | 4.28 nM | 0.37 nM | 1.42 nM | 280 nM | 0.76 nM | 12.8 nM | 25.2 nM | 4.56 nM | 1.14 nM |
| Cc1ccc(C(=O)Nc2cccc(C(F)(F)F)c2)cc1C#Cc1cnc2c(Nc3cnn(C)c3)nccn12 [Example 2, 4-methyl-3-((8-((1-methyl-1H-pyrazol-4-yl)amino)imidazo[1,2-a]pyrazin-3-yl)ethynyl)-N-(3-(trifluoromethyl)phenyl)benzamide] | 6.65 nM | 10.1 nM | 0.32 nM | 2.69 nM | 945 nM | 0.5 nM | 5.1 nM | 17 nM | 6.02 nM | 10 nM |
